Laboratory results published in ChEMBL document CHEMBL3286312, “Synthesis and structure-activity relationships of guaiane-type sesquiterpene lactone derivatives with respect to inhibiting NO production in lipopolysaccharide-induced RAW 264.7 macrophages” (Eur J Med Chem, 2014).

Columns and labels:
[1] = Cytotoxicity against mouse RAW264.7 cells assessed as cell survival rate up to 25 uM after 18 hrs by MTT assay relative to control; format: cell-based; details: read-out: Survival
[2] = test system: RAW264.7; assay: Antiinflammatory activity against mouse RAW264.7 cells assessed as inhibition of LPS-induced NO production at 25 uM after 18 hrs by Griess method relative to control; format: functional; details: RAW264.7, 18 h
[3] = test system: RAW264.7; assay: Cytotoxicity against mouse RAW264.7 cells assessed as reduction in cell survival rate after 18 hrs by MTT assay relative to control; format: cell-based; details: RAW264.7, 18 h
[4] = test system: RAW264.7; assay: Antiinflammatory activity against mouse RAW264.7 cells assessed as inhibition of LPS-induced NO production at after 18 hrs by Griess method relative to control; format: functional, cell-based; details: RAW264.7, 18 h

| Compound | viability at 18 h [1] [%] | inhibition at 25 µM [2] [%] | IC50 [3] [µM] | IC50 [4] [µM] |
| --- | --- | --- | --- | --- |
| CC1=C2C(C[C@@H]1OC(=O)/C=C/c1ccc([N+](=O)[O-])cc1)[C@](C)(O)CC[C@H]1[C@H](C)C(=O)O[C@H]21 (stereo partly specified) | 92.5 | 45 |  |  |
| CC(=O)O[C@]1(C)CC[C@H]2[C@H](C)C(=O)O[C@@H]2C2=C(C)C(=O)CC21 (stereo partly specified) | 100 | 6.9 |  |  |
| CC(=O)O[C@]1(C)CC[C@H]2[C@H](C)C(=O)O[C@@H]2C2=C(C)[C@@H](O)CC21 (stereo partly specified) | 100 | 0 |  |  |
| CC1=C2C(CC1=O)[C@](C)(O)CC[C@H]1[C@H](C)C(=O)O[C@H]21 (stereo partly specified) | 100 | 0 |  |  |
| CC1=C2C(C[C@@H]1O)[C@](C)(O)CC[C@H]1[C@H](C)C(=O)O[C@H]21 (stereo partly specified) | 100 | 0 |  |  |
| CC1=C2C(C[C@@H]1OC(=O)c1ccc(C)cc1)[C@](C)(O)CC[C@H]1[C@H](C)C(=O)O[C@H]21 (stereo partly specified) | 100 | 21.2 |  |  |
| CCc1ccc(C(=O)O[C@H]2CC3C(=C2C)[C@H]2OC(=O)[C@@H](C)[C@@H]2CC[C@@]3(C)O)cc1 (stereo partly specified) | 85.2 | 26.3 |  |  |
| CCCc1ccc(C(=O)O[C@H]2CC3C(=C2C)[C@H]2OC(=O)[C@@H](C)[C@@H]2CC[C@@]3(C)O)cc1 (stereo partly specified) | 73.4 | 30.6 |  |  |
| CCCCc1ccc(C(=O)O[C@H]2CC3C(=C2C)[C@H]2OC(=O)[C@@H](C)[C@@H]2CC[C@@]3(C)O)cc1 (stereo partly specified) | 72.6 | 33.2 |  |  |
| CCCCCc1ccc(C(=O)O[C@H]2CC3C(=C2C)[C@H]2OC(=O)[C@@H](C)[C@@H]2CC[C@@]3(C)O)cc1 (stereo partly specified) | 79.3 | 29.8 |  |  |
| CC1=C2C(C[C@@H]1OC(=O)c1ccc(C(C)C)cc1)[C@](C)(O)CC[C@H]1[C@H](C)C(=O)O[C@H]21 (stereo partly specified) | 74.7 | 53.3 |  |  |
| CC1=C2C(C[C@@H]1OC(=O)c1ccc(C(C)(C)C)cc1)[C@](C)(O)CC[C@H]1[C@H](C)C(=O)O[C@H]21 (stereo partly specified) | 52.1 | 76.3 | 29.1 | 14.8 |
| COc1ccc(C(=O)O[C@H]2CC3C(=C2C)[C@H]2OC(=O)[C@@H](C)[C@@H]2CC[C@@]3(C)O)cc1 (stereo partly specified) | 98 | 6.6 |  |  |
| CC1=C2C(C[C@@H]1OC(=O)c1ccc(OC(F)(F)F)cc1)[C@](C)(O)CC[C@H]1[C@H](C)C(=O)O[C@H]21 (stereo partly specified) | 97.5 | 30.6 |  |  |
| CC1=C2C(C[C@@H]1OC(=O)c1ccc(C(F)(F)F)cc1)[C@](C)(O)CC[C@H]1[C@H](C)C(=O)O[C@H]21 (stereo partly specified) | 100 | 20.4 |  |  |
| CC1=C2C(C[C@@H]1OC(=O)c1ccc([N+](=O)[O-])cc1)[C@](C)(O)CC[C@H]1[C@H](C)C(=O)O[C@H]21 (stereo partly specified) | 100 | 1.8 |  |  |
| CC1=C2C(C[C@@H]1OC(=O)c1ccc(C#N)cc1)[C@](C)(O)CC[C@H]1[C@H](C)C(=O)O[C@H]21 (stereo partly specified) | 100 | 6.6 |  |  |
| CC1=C2C(C[C@@H]1OC(=O)c1ccc(F)cc1)[C@](C)(O)CC[C@H]1[C@H](C)C(=O)O[C@H]21 (stereo partly specified) | 100 | 19.4 |  |  |
| CC1=C2C(C[C@@H]1OC(=O)c1ccc(Cl)cc1)[C@](C)(O)CC[C@H]1[C@H](C)C(=O)O[C@H]21 (stereo partly specified) | 100 | 19.6 |  |  |
| CC1=C2C(C[C@@H]1OC(=O)c1ccc(Br)cc1)[C@](C)(O)CC[C@H]1[C@H](C)C(=O)O[C@H]21 (stereo partly specified) | 98.1 | 28.1 |  |  |
| CC1=C2C(C[C@@H]1OC(=O)c1ccc(I)cc1)[C@](C)(O)CC[C@H]1[C@H](C)C(=O)O[C@H]21 (stereo partly specified) | 93 | 46.5 |  |  |

| Compound | viability at 18 h [1] [%] | inhibition at 25 µM [2] [%] | IC50 [3] [µM] | IC50 [4] [µM] |
| --- | --- | --- | --- | --- |
| CC1=C2C(C[C@@H]1OC(=O)/C=C/c1ccc(C)cc1)[C@](C)(O)CC[C@H]1[C@H](C)C(=O)O[C@H]21 (stereo partly specified) | 100 | 58.8 | 76.5 | 29 |
| CSc1ccc(/C=C/C(=O)O[C@H]2CC3C(=C2C)[C@H]2OC(=O)[C@@H](C)[C@@H]2CC[C@@]3(C)O)cc1 (stereo partly specified) | 100 | 67.4 | > 100 | 27.2 |
| COc1ccc(/C=C/C(=O)O[C@H]2CC3C(=C2C)[C@H]2OC(=O)[C@@H](C)[C@@H]2CC[C@@]3(C)O)cc1 (stereo partly specified) | 100 | 19.3 |  |  |
| CCOc1ccc(/C=C/C(=O)O[C@H]2CC3C(=C2C)[C@H]2OC(=O)[C@@H](C)[C@@H]2CC[C@@]3(C)O)cc1 (stereo partly specified) | 35.6 | 26.9 |  |  |
| CCCOc1ccc(/C=C/C(=O)O[C@H]2CC3C(=C2C)[C@H]2OC(=O)[C@@H](C)[C@@H]2CC[C@@]3(C)O)cc1 (stereo partly specified) | 43.1 | 19.3 |  |  |
| CC1=C2C(C[C@@H]1OC(=O)/C=C/c1ccc(N(C)C)cc1)[C@](C)(O)CC[C@H]1[C@H](C)C(=O)O[C@H]21 (stereo partly specified) | 100 | 44.5 |  |  |
| CC1=C2C(C[C@@H]1OC(=O)/C=C/c1ccc(F)cc1)[C@](C)(O)CC[C@H]1[C@H](C)C(=O)O[C@H]21 (stereo partly specified) | 100 | 31.6 |  |  |
| CC1=C2C(C[C@@H]1OC(=O)/C=C/c1ccc(Cl)cc1)[C@](C)(O)CC[C@H]1[C@H](C)C(=O)O[C@H]21 (stereo partly specified) | 100 | 82 | 59.2 | 22.3 |
| CC1=C2C(C[C@@H]1OC(=O)/C=C/c1ccc(Br)cc1)[C@](C)(O)CC[C@H]1[C@H](C)C(=O)O[C@H]21 (stereo partly specified) | 97.8 | 85.2 | 60.2 | 18.3 |
| CC1=C2C(C[C@@H]1OC(=O)/C=C/c1ccc(C#N)cc1)[C@](C)(O)CC[C@H]1[C@H](C)C(=O)O[C@H]21 (stereo partly specified) | 100 | 31.4 |  |  |
| CC1=C2C(C[C@@H]1OC(=O)/C=C/c1ccc(C(F)(F)F)cc1)[C@](C)(O)CC[C@H]1[C@H](C)C(=O)O[C@H]21 (stereo partly specified) | 100 | 75.9 | 54.9 | 17.4 |
| CC1=C2C(C[C@@H]1OC(=O)c1cccs1)[C@](C)(O)CC[C@H]1[C@H](C)C(=O)O[C@H]21 (stereo partly specified) | 100 | 0 |  |  |
| CC1=C2C(C[C@@H]1OC(=O)c1ccsc1)[C@](C)(O)CC[C@H]1[C@H](C)C(=O)O[C@H]21 (stereo partly specified) | 93.9 | 6.7 |  |  |
| CC1=C2C(C[C@@H]1OC(=O)c1ccco1)[C@](C)(O)CC[C@H]1[C@H](C)C(=O)O[C@H]21 (stereo partly specified) | 100 | 2.2 |  |  |
| CC1=C2C(C[C@@H]1OC(=O)c1ccccn1)[C@](C)(O)CC[C@H]1[C@H](C)C(=O)O[C@H]21 (stereo partly specified) | 100 | 0 |  |  |
| CC1=C2C(C[C@@H]1OC(=O)c1cccnc1)[C@](C)(O)CC[C@H]1[C@H](C)C(=O)O[C@H]21 (stereo partly specified) | 86.9 | 6.1 |  |  |
| CC1=C2C(C[C@@H]1OC(=O)c1ccncc1)[C@](C)(O)CC[C@H]1[C@H](C)C(=O)O[C@H]21 (stereo partly specified) | 100 | 2 |  |  |
| CC1=C2C(C[C@@H]1OC(=O)c1cccc3ccccc13)[C@](C)(O)CC[C@H]1[C@H](C)C(=O)O[C@H]21 (stereo partly specified) | 67.4 | 79.6 | 7.52 | 6.98 |
| CC1=C2C(C[C@@H]1OC(=O)c1ccc3ccccc3c1)[C@](C)(O)CC[C@H]1[C@H](C)C(=O)O[C@H]21 (stereo partly specified) | 100 | 68.8 | 89.4 | 25.7 |
| CC1=C2C(C[C@@H]1OC(=O)c1ccc3ncccc3c1)[C@](C)(O)CC[C@H]1[C@H](C)C(=O)O[C@H]21 (stereo partly specified) | 100 | 23.2 |  |  |
| N=C(N)NN [PIMAGEDINE] | 100 | 83.8 |  | 8.68 |
